Reference: article PMC8474119, “Discovery and SAR Evolution of Pyrazole Azabicyclo[3.2.1]octane Sulfonamides as a Novel Class of Non-Covalent N-Acylethanolamine-Hydrolyzing Acid Amidase (NAAA) Inhibitors for Oral Administration” (Journal of Medicinal Chemistry, 2021)

Experiments:
human FAAH = biological target: T1, human FAAH (Homo sapiens, UniProt O00519); test: Fluorogenic human-FAAH-1 assay; format: biochemical
T1 construct: made in house; host or cells: HEK-293 cells stably overexpressing human FAAH-1; membrane-enriched lysate
T1 sequence (O00519 1-579): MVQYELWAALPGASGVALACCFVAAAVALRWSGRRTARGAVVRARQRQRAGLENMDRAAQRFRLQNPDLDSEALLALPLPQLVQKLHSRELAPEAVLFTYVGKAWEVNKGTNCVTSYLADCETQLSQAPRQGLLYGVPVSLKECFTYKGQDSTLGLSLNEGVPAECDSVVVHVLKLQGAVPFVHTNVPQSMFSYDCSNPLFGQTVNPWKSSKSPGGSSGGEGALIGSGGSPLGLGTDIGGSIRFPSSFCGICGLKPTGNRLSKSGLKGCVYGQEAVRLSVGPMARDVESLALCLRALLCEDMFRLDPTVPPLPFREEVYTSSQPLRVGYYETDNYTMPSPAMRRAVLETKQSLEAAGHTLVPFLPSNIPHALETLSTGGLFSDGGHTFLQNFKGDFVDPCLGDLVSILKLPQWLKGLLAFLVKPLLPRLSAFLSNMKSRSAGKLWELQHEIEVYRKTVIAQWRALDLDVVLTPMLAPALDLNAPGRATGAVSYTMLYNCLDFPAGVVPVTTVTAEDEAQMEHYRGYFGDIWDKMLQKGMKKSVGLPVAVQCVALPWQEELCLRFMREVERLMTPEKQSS
Protocol: Human recombinant proteins were obtained from HEK-293 stable overexpressing human NAAA, AC, and FAAH-1 cell lines, respectively. Cells were grown in Dulbecco’s modified Eagle medium (DMEM) containing 10% FBS, 1% glutamine, 1 mM sodium pyruvate, and 500 μg/mL geneticin (G418). To obtain a high-density cell proliferation, h-NAAA-HEK-293 cells were grown in BelloCell-500 bottle, a compact bioreactor. On the contrary, h-AC and h-FAAH-1-HEK-293 cells were grown in 150 mm dishes and scraped off with cold PBS 1× pH 7.4 at 80% confluence. Cell pellets were collected and stored at −80 °C until protein preparation.
Cell pellets, obtained by centrifugation at 300g for 7 min at 4 °C, were resuspended in 20 mM Tris-HCl pH 7.4, 0.32 M sucrose, disrupted by sonication (10 pulses, 5 times), and centrifuged (1000g, 10 min, 4 °C). […] Membrane pellets were resuspended in PBS to obtain h-FAAH-1 preparation; the protein concentration was measured by the Bradford Protein Assay (BioRad) and samples were aliquoted and stored at −80 °C until use.
The fluorescence assay to measure FAAH activity was performed in 96-well black plates (Black OptiPlate-96 F; PerkinElmer, Massachusetts, USA): 2.5 μg of human FAAH-1 membrane preparation was preincubated for 50 min at 37 °C, in 190 μL of assay buffer (50 mM Tris-HCl pH 7.4, 0.05% Fatty acid-free BSA) with 5 μL of inhibitor or 5 μL DMSO to measure FAAH total activity. […]

h-NAAA = biological target: T2, h-NAAA (Homo sapiens, UniProt Q02083); test: Competitive activity-based protein profiling (ABPP) with probe ARN14686; format: binding
T2 construct: made in house; host or cells: HEK-293 cells stably overexpressing human NAAA; enzyme-enriched (lysosomal) lysate
T2 sequence (Q02083 29-125 limits assumed): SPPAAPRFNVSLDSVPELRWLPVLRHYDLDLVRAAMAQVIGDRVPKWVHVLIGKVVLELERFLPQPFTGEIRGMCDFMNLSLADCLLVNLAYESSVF
T2 sequence (Q02083 126-359 limits assumed): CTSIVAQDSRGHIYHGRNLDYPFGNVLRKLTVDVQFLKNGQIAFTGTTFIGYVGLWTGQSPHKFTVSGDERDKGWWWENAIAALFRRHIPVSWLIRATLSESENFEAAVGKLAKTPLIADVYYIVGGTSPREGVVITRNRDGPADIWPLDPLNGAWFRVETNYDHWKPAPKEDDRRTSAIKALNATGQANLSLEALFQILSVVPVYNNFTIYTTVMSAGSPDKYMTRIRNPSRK
Protocol: At the end of this preincubation time, the activity-based probe undec-10-ynyl-N-[(S)-2-oxoazetidin-3-yl]carbamate (ARN14686, see Figure S1, Supporting Information)[45] was added at 20 μM for 15 min or for 4 h at 37 °C. Next, click chemistry reaction was performed by adding the following reagents at the indicated final concentrations: 100 μM azide-PEG3-alexa fluor 545 (CLK-AZ109, Jena Bioscience), 1.0 mM tris(2-carboxyethyl)phosphine (TCEP) hydrochloride, 100 μM tris-[(1-benzyl-1H-1,2,3-triazol-4-yl)methyl]amine (TBTA), and 1 mM CuSO4·5H2O.[62] TBTA was first dissolved in DMSO at 83.5 mM and then diluted with four volumes of tert-butanol. The reaction was mixed by vortexing and incubated 2 h at 25 °C. Samples (10 μL) were analyzed by SDS-PAGE, and gel fluorescence was scanned at 532 nm wavelength (ChemidDoc MP, BIO-RAD).

With `CCOCc1cnc(O[C@H]2C[C@H]3CC[C@@H](C2)N3S(=O)(=O)c2c(C)n[nH]c2C)cn1` [Compound 50, (1R,3r,5S)-8-((3,5-Dimethyl-1H-pyrazol-4-yl)sulfonyl)-3-((5-(ethoxymethyl)pyrazin-2-yl)oxy)-8-azabicyclo[3.2.1]octane] as the molecule, how does the inhibition at 30 µM (human FAAH) read?
The inhibition at 30 µM was 25%.

And the “effect on h-NAAA labeling by ABP ARN14686, 15 min probe incubation” value (h-NAAA; 20 μM, lysosomal extracts of h-NAAA overexpressing HEK-293 cells, probe 15 min)?
The value was “prevented the binding”.

And the “effect on h-NAAA labeling by ABP ARN14686, 4 h probe incubation” value (h-NAAA; 20 μM, lysosomal extracts of h-NAAA overexpressing HEK-293 cells, probe 4 h)?
The value was “almost totally reverted”.

What about the “mode of interaction with h-NAAA” value (h-NAAA; competitive ABPP) of the same molecule?
Its value is “non-covalent interaction with h-NAAA”.
